Results: patent publication US8877816B2, “4-(or 5-) substituted catechol derivatives” (Decode Genetics EHF, priority 2007, dated 2014)

Assays:
PDE4 h4D7 = PDE4 h4D7 (Homo sapiens, UniProt Q08499); assay: In-vitro real-time enzyme-coupled spectrophotometric assay for PDE4 enzymes (h4D7); assay type: biochemical; details: PDE4 isoform h4D7; enzyme-coupled NADH assay, absorbance at 340 nm
Method: (§1) In-vitro assay for PDE4 enzymes. The in-vitro activity of PDE4 enzymes and the in-vitro potency of therapeutic agents described in the present invention was measured using a real-time, enzyme-coupled spectrophotometric assay. By using three different coupling enzymes, the product of the PDE4 reaction is coupled to the oxidation of the reduced form β-nicotinamide adenine dinucleotide (NADH), which dissipation can be monitored spectrophotmetrically at […].
(§2) Assay description. Buffer A containing 50 mM Tris, pH 8.0, 16 mM MgCl2 and 80 mM KCl is prepared and stored at room temperature. Buffer B containing 50 mM Tris, pH 8.0 is prepared and stored at room temperature. Stock solutions of the following reagents are prepared in Buffer B and stored at −20° C.: Adenosine-5′-triphosphate (ATP), cyclic adenosine-5′-monophosphate (cAMP), phosphoenolpyruvate (PEP) and NADH. An assay mix is prepared by mixing Buffer A, […] (TCEP), ATP, PEP, NADH, myokinase (MK), pyruvate kinase (PK), lactate dehydroganese (LDH) and PDE4 to a final volume of 20 mL, which is enough for a single 96-well assay plate. Assay mix (180 μL) and test article (10 μL) in 1:1 DMSO/H2O mixture is pre-incubated at room temperature for 10 min. The enzymatic reaction is initiated by addition of cAMP (10 μL). Final concentration of all components in the assay (200 μL/well) are as follows: 10 mM MgCl2, 50 mM KCl, 5 mM TCEP, 2.5% DMSO, 0.4 mM NADH, 1 mM PEP, 0.04 mM ATP, 5 units MK, 1 unit PK, 1 unit LDH and appropriate amount of PDE4. Reaction progress curves are monitored in a plate reader capable of measuring light absorbance at 340 nm. A decrease in light absorbance at 340 nm is due to oxidation of NADH. Positive controls containing no test article and negative controls containing no test article and no cAMP are included on every assay plate. Reaction rates are determined from the slopes of the linear portions of the progress curves. All data are percent normalized with respect to controls and presented as percent inhibition.

PDE4 h4B1 = PDE4 h4B1 (Homo sapiens, UniProt Q07343); assay: In-vitro real-time enzyme-coupled spectrophotometric assay for PDE4 enzymes (h4B1); assay type: biochemical; details: PDE4 isoform h4B1; enzyme-coupled NADH assay, absorbance at 340 nm
Chain of PDE4 h4B1 (Q07343 whole entry, canonical isoform): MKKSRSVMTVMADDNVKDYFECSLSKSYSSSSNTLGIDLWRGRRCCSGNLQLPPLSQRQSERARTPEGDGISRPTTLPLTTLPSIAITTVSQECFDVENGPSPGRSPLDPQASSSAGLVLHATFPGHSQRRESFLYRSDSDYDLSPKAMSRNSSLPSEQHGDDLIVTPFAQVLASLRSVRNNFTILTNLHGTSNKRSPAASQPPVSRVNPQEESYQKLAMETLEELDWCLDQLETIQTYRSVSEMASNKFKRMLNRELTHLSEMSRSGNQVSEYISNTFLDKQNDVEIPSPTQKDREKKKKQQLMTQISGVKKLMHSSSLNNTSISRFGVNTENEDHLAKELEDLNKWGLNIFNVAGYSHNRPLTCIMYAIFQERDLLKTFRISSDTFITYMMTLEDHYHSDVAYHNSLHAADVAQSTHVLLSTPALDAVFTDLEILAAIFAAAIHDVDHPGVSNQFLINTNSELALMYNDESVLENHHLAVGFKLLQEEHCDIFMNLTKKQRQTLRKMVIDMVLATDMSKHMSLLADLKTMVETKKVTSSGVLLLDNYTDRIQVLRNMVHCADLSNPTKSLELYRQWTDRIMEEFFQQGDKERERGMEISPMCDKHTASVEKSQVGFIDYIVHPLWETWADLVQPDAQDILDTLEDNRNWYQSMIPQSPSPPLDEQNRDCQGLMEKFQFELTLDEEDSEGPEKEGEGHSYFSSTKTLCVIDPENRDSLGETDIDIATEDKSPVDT
Method: as §1, §2

[1] = test system: leukotriene E4 (LTE4) in human whole blood after Sephadex stimulation; assay: Ex-vivo assay: Sephadex bead stimulated LTE4 production in human whole blood; assay type: cell-based; details: 1.5 h; heparinized human whole blood, Sephadex G-15 beads, 37° C. 90 min, LTE4 by immunoassay; read-out: IC50 (inhibition of LTE4 production)
Method: The activity of PDE4 inhibitors described in the present invention was also measured using in an ex-vivo assay measuring leukotriene E4 (LTE4) in human whole blood after Sephadex stimulation. […] For each sample, 356 μl of heparinized human whole blood (Vacutainer tube #6480) is added to wells of a 96 well plate. Then, 4 μl of a series of compound dilutions (in DMSO) are added in triplicates, suspension mixed and allowed to incubate at 37° C. for 15 min with gentle shaking. After that, blood samples are stimulated by adding 40 μL of Sephadex G-15 beads (Sigma-Aldrich, Sweden). The beads are predissolved in PBS (0.16 g/mL PBS). After mixing, the suspension is incubated at 37° C. for 90 min. Then, 8 μL of 15% EDTA/PBS is added to each sample, mixed and plate centrifuged for 5 min at 115×g at 21° C. and supernatants taken. In each plate, 10 positive controls and 10 negative controls are used, containing DMSO instead of compound solution. The positive controls are stimulated with Sephadex as described for the samples, and in the negative controls (unstimulated), Sephadex solution is replaced by PBS. LTE4 levels in the resulting plasma samples are determined using a commercial enzyme-linked immunoassay (Cayman Chemical Company, Ann Arbor, Mich.) according to the manufacturer's instructions. […]

Chain of PDE4 h4D7 (Q08499 1-748 isoform Q08499-11): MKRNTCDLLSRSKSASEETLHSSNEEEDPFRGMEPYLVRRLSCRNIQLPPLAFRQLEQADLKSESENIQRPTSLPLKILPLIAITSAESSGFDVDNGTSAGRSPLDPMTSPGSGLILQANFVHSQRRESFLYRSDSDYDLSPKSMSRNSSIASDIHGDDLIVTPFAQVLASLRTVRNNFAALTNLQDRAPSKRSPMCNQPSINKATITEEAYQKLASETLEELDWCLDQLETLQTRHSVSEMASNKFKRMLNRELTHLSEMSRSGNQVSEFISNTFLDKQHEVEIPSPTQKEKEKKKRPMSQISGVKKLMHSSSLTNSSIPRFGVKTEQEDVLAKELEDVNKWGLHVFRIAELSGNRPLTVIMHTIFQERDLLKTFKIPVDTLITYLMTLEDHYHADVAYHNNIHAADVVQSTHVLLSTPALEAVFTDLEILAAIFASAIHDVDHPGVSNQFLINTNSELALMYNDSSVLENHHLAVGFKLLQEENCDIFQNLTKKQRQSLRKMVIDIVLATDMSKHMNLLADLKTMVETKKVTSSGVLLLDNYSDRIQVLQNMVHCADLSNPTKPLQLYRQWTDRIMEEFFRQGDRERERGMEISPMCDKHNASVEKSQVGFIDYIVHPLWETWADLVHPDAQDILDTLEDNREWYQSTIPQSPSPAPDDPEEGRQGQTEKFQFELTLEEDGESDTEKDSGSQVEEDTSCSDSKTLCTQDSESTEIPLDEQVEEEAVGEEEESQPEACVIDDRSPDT

Row | SMILES | IC50 (PDE4 h4D7) [µM] | IC50 (PDE4 h4B1) [µM] | IC50 [1] [µM]
1 | COc1ccc(Cc2ccc(NS(C)(=O)=O)cc2)cc1Oc1ccccc1 [Example P-04, N-[4-(4-Methoxy-3-phenoxy-benzyl)-phenyl]-methanesulfonamide] | > 21 | > 21 | –
2 | COc1ccc(Cc2ccc(N)nc2)cc1Oc1cccc(Cl)c1 [Example P-05, 5-[3-(3-Chloro-phenoxy)-4-methoxy-benzyl]-pyridin-2-ylamine] | 1 to 10 | 11 to 20 | –
3 | COc1ccc(Cc2ccc(NS(C)(=O)=O)nc2)cc1Oc1cccc(Cl)c1 [Example P-09, N-{5-[3-(3-Chloro-phenoxy)-4-methoxy-benzyl]-pyridin-2-yl}-methanesulfonamide] | 1 to 10 | > 21 | –
4 | COc1ccc(Cc2ccc(F)cc2)c(F)c1Oc1cccc(N)c1 [Example P-02, 3-[2-Fluoro-3-(4-fluoro-benzyl)-6-methoxy-phenoxy]-phenylamine] | > 21 | > 21 | –
5 | COc1ccc(Cc2ccc(NC(N)=O)nc2)cc1Oc1cccc(Cl)c1 [Example P-06, {5-[3-(3-Chloro-phenoxy)-4-methoxy-benzyl]-pyridin-2-yl}-urea] | 1 to 10 | 1 to 10 | –
6 | COc1ccc(Cc2ccc(F)cc2)c(F)c1Oc1cccc([N+](=O)[O-])c1 [Example P-01, 2-Fluoro-1-(4-fluoro-benzyl)-4-methoxy-3-(3-nitro-phenoxy)-benzene] | < 1 | > 21 | < 1
7 | COc1ccc(Cc2ccc(NC(N)=O)cc2)c(F)c1Oc1ccccn1 [Example P-12] | < 1 | > 21 | –
8 | COc1ccc(Cc2ccc(NC(N)=O)cc2)c(F)c1Oc1ccc(F)cc1 [Example P-11, {4-[2-Fluoro-3-(4-fluoro-phenoxy)-4-methoxy-benzyl]-phenyl}-urea] | < 1 | 1 to 10 | –
9 | COc1ccc(Cc2ccc(N)cc2)cc1Oc1cccc(Cl)c1 [Example P-07, 4-[3-(3-Chloro-phenoxy)-4-methoxy-benzyl]-phenylamine] | 1 to 10 | 1 to 10 | –
10 | COc1ccc(Cc2ccc(O)cc2)cc1Oc1cccc(Cl)c1 [Example P-08, 4-[3-(3-chloro-phenoxy)-4-methoxy-benzyl]-phenol] | 1 to 10 | > 21 | –
11 | COc1ccc(Cc2ccc(NC(C)=O)cc2)c(F)c1Oc1ccc(F)cc1 [Example P-10, N-{4-[2-Fluoro-3-(4-fluoro-phenoxy)-4-methoxy-benzyl]-phenyl}-acetamide] | 11 to 20 | > 21 | –
12 | COc1ccc(Cc2ccc(F)cc2)c(F)c1Oc1cccc(Cl)c1 [Example P-03, 2-(3-Chloro-phenoxy)-3-fluoro-4-(4-fluoro-benzyl)-1-methoxy-benzene] | < 1 | 1 to 10 | –
